From the supplement of paper PMC13380429

Legend:
[1] = system: A549-ACE2 infected with SARS-CoV-2; experiment: cell count relative to DMSO; higher = less toxic; settings: 24 h
[2] = system: Caco-2; experiment: relative viability EC50 (midpoint between 100% and the lowest measured viability); higher = less toxic; settings: 72 h
[3] = system: Vero E6; experiment: as above; settings: 72 h
[4] = system: U2OS; experiment: as above; settings: 72 h
[5] = system: Calu-3; experiment: as above; settings: 72 h
[6] = system: A549-ACE2; experiment: drug-induced phospholipidosis relative to tamoxifen; higher = more phospholipidosis
[7] = system: Caco-2; experiment: drug sensitivity score (DSS) for viability; higher = more toxic; extreme values may be limits of the assay; settings: 72 h
[8] = system: Vero E6; experiment: as above; settings: 72 h
[9] = system: U2OS; experiment: as above; settings: 72 h
[10] = system: HepG2; experiment: as above; settings: 72 h
[11] = system: Calu-3; experiment: as above; settings: 72 h
[12] = system: A549-ACE2 infected with SARS-CoV-2; experiment: morphology score (similarity to uninfected cells); higher = more like uninfected cells; settings: 24 h
[13] = system: A549-ACE2 infected with SARS-CoV-2; experiment: SARS-CoV-2 infection rate relative to DMSO; higher = more infection; settings: 24 h
[14] = system: A549-ACE2; experiment: phospholipidosis EC50; higher = less potent phospholipidosis inducer
[15] = system: Caco-2; experiment: cell viability relative to DMSO; higher = less toxic; settings: 72 h
[16] = system: Vero E6; experiment: as above; settings: 72 h
[17] = system: U2OS; experiment: as above; settings: 72 h
[18] = system: HepG2; experiment: as above; settings: 72 h
[19] = system: Calu-3; experiment: as above; settings: 72 h
[20] = system: HepG2; experiment: relative viability EC50 (midpoint between 100% and the lowest measured viability); higher = less toxic; settings: 72 h

COc1ccc(/C=C/C(=O)/C=C(O)/C=C/c2ccc(OC)c(OC)c2)cc1OC [ASC-J9]
Settings	SARS-CoV-2 infection rate [%]	cell count [%]	cell viability [%]	morphology score	phospholipidosis EC50 [µM]
[1], 0.3 µM	–	100	–	–	–
[1], 3 µM	–	101	–	–	–
[1], 10 µM	–	98	–	–	–
[1], 30 µM	–	70	–	–	–
[12], 0.3 µM	–	–	–	0.01	–
[12], 3 µM	–	–	–	-0.06	–
[12], 10 µM	–	–	–	0.39	–
[12], 30 µM	–	–	–	0.56	–
[13], 0.3 µM	98	–	–	–	–
[13], 3 µM	97	–	–	–	–
[13], 10 µM	87	–	–	–	–
[13], 30 µM	25	–	–	–	–
[14], 24 h	–	–	–	–	20
[15], 1 nM	–	–	90.7	–	–
[15], 10 nM	–	–	92.8	–	–
[15], 100 nM	–	–	92.9	–	–
[15], 1000 nM	–	–	100	–	–
[15], 10000 nM	–	–	45.2	–	–
[16], 1 nM	–	–	99.2	–	–
[16], 10 nM	–	–	93.9	–	–
[16], 100 nM	–	–	103	–	–
[16], 1000 nM	–	–	101	–	–
[16], 10000 nM	–	–	103	–	–
[17], 1 nM	–	–	96.1	–	–
[17], 10 nM	–	–	97.5	–	–
[17], 100 nM	–	–	95.3	–	–
[17], 1000 nM	–	–	98.1	–	–
[17], 10000 nM	–	–	26.5	–	–
[18], 1 nM	–	–	118	–	–
[18], 10 nM	–	–	106	–	–
[18], 100 nM	–	–	111	–	–
[18], 1000 nM	–	–	95.4	–	–
[18], 10000 nM	–	–	55.8	–	–
[19], 1 nM	–	–	96.5	–	–
[19], 10 nM	–	–	94.9	–	–
[19], 100 nM	–	–	110	–	–
[19], 1000 nM	–	–	108	–	–
[19], 10000 nM	–	–	81.9	–	–

Settings	drug sensitivity score	relative viability EC50 [µM]
[2]	–	3.19
[3]	–	> 10
[4]	–	2.98
[5]	–	> 10
[7]	2.9	–
[8]	0	–
[9]	4.3	–
[10]	3	–
[11]	0.3	–

drug-induced phospholipidosis [%], [6]
Settings	0.3 µM	0.833333 µM	3.33333 µM	6.66667 µM	10 µM	30 µM
24 h	0.46	-1.23	4.99	24.2	40.1	139
48 h	1.84	-1.1	1.58	8.23	13.3	45.5
72 h	4.19	-0.9	1.28	7.61	9.79	37.4

Clc1ccccc1CNC[C@H]1CC[C@H](CNCc2ccccc2Cl)CC1 [AY-9944]
Settings	SARS-CoV-2 infection rate [%]	cell count [%]	cell viability [%]	morphology score	phospholipidosis EC50 [µM]
[1], 0.3 µM	–	104	–	–	–
[1], 3 µM	–	123	–	–	–
[1], 10 µM	–	126	–	–	–
[1], 30 µM	–	113	–	–	–
[12], 0.3 µM	–	–	–	0.42	–
[12], 3 µM	–	–	–	0.76	–
[12], 10 µM	–	–	–	0.56	–
[12], 30 µM	–	–	–	0.08	–
[13], 0.3 µM	86	–	–	–	–
[13], 3 µM	39	–	–	–	–
[13], 10 µM	17	–	–	–	–
[13], 30 µM	34	–	–	–	–
[14], 24 h	–	–	–	–	5.85
[14], 48 h	–	–	–	–	5.4
[14], 72 h	–	–	–	–	4.53
[15], 1 nM	–	–	99.5	–	–
[15], 10 nM	–	–	108	–	–
[15], 100 nM	–	–	99.7	–	–
[15], 1000 nM	–	–	95.1	–	–
[15], 10000 nM	–	–	83.7	–	–
[16], 1 nM	–	–	102	–	–
[16], 10 nM	–	–	104	–	–
[16], 100 nM	–	–	105	–	–
[16], 1000 nM	–	–	94.5	–	–
[16], 10000 nM	–	–	90	–	–
[17], 1 nM	–	–	97.4	–	–
[17], 10 nM	–	–	102	–	–
[17], 100 nM	–	–	103	–	–
[17], 1000 nM	–	–	107	–	–
[17], 10000 nM	–	–	92.8	–	–
[18], 1 nM	–	–	104	–	–
[18], 10 nM	–	–	96	–	–
[18], 100 nM	–	–	110	–	–
[18], 1000 nM	–	–	98.1	–	–
[18], 10000 nM	–	–	59.2	–	–
[19], 1 nM	–	–	97.7	–	–
[19], 10 nM	–	–	104	–	–
[19], 100 nM	–	–	106	–	–
[19], 1000 nM	–	–	108	–	–
[19], 10000 nM	–	–	7.3	–	–

Settings	drug sensitivity score	relative viability EC50 [µM]
[2]	–	> 10
[3]	–	> 10
[4]	–	> 10
[5]	–	3.6
[7]	0.8	–
[8]	0	–
[9]	0	–
[10]	2.3	–
[11]	4.6	–

drug-induced phospholipidosis [%], [6]
Settings	0.3 µM	0.833333 µM	3.33333 µM	6.66667 µM	10 µM	30 µM
24 h	20.6	37.8	77.7	88.2	96.4	121
48 h	14.1	38.1	78.4	112	116	148
72 h	17.5	29.9	79.3	115	128	157

Cc1[nH]c2ccccc2c1CCNC(=O)c1cccs1 [CK-636]
Settings	SARS-CoV-2 infection rate, [13] [%]	cell count, [1] [%]	cell viability, [15] [%]	cell viability, [16] [%]	cell viability, [17] [%]	cell viability, [18] [%]	cell viability, [19] [%]	morphology score, [12]
1 nM	–	–	98.9	104	94	99.8	100	–
10 nM	–	–	99.8	100	101	104	90.9	–
100 nM	–	–	91.4	103	94.9	102	91.8	–
0.3 µM	101	98	–	–	–	–	–	-0.06
1000 nM	–	–	99.6	97	100	99.8	99.7	–
3 µM	103	99	–	–	–	–	–	-0.01
10 µM	100	101	–	–	–	–	–	0.14
10000 nM	–	–	84.1	99.3	93.2	104	93.2	–
30 µM	100	97	–	–	–	–	–	0.06

Settings	drug sensitivity score	relative viability EC50 [µM]
[2]	–	> 10
[3]	–	> 10
[4]	–	> 10
[5]	–	> 10
[7]	0.3	–
[8]	0	–
[9]	0	–
[10]	0	–
[11]	0	–
[20]	–	> 10

drug-induced phospholipidosis [%], [6]
Settings	0.3 µM	0.833333 µM	3.33333 µM	6.66667 µM	10 µM	30 µM
24 h	6.27	1.27	2.41	2.27	5.29	11.7
48 h	3.87	-1.04	2.68	4.83	2.67	12.2
72 h	1.44	-4.13	1.2	4.21	4.6	12.1
